Counter-ions that a name gives are not always drawn.

The source of these data is patent US6265426A, “Triazole derivatives” (Hoffmann-La Roche Inc., priority 1999, dated 2001).

The target of the test is T1, NMDA receptor (Rattus norvegicus, UniProt P35439+Q00960).
T1 construct: Membranes were prepared by homogenization of the whole brain minus cerebellum and medulla oblongata; from tissue; host or cells: rat whole brain minus cerebellum and medulla oblongata, membranes
T1 sequence (Q00960 27-1482, other chains not shown): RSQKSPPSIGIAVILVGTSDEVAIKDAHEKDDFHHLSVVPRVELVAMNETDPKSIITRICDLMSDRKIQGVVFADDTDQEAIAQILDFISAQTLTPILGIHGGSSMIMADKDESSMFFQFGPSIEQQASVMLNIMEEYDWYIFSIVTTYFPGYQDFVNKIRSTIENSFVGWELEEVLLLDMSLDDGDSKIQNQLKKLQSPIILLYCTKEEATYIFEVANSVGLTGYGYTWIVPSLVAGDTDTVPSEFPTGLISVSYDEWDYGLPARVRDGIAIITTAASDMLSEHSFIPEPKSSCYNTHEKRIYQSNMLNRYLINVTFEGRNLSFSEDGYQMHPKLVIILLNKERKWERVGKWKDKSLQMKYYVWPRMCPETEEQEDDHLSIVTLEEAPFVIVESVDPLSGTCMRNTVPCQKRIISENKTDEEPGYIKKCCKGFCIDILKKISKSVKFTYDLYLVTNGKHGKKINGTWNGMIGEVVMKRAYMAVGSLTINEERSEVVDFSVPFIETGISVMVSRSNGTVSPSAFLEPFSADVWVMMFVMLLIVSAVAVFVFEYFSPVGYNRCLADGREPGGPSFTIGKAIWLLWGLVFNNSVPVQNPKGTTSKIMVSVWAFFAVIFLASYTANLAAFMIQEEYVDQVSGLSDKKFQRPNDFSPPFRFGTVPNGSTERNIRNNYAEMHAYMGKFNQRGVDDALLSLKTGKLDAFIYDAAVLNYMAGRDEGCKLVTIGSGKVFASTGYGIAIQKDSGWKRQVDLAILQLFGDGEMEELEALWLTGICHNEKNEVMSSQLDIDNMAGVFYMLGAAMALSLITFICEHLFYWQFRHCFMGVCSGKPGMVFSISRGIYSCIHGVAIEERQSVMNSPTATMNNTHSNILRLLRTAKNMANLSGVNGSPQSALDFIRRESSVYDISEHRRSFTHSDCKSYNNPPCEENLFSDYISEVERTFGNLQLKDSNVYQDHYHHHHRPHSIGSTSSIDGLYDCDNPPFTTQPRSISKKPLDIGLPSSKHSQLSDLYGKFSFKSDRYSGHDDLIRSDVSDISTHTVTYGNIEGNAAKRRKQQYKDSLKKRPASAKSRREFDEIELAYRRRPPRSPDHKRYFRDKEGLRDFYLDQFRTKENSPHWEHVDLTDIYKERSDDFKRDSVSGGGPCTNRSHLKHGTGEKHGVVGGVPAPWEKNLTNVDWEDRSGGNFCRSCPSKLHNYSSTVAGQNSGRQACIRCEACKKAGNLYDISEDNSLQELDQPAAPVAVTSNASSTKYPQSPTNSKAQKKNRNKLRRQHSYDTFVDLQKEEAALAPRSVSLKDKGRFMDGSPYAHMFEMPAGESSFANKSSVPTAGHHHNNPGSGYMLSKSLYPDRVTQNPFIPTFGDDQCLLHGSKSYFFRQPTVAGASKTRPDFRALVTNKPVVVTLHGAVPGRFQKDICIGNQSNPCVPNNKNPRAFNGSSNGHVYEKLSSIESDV
Put plainly: [3H] Compound A (R-(R*,S*)]-α-(4-Hydroxy-phenyl)-β-methyl-4-(phenyl-methyl)-1-piperidine propanol) binding, displacement on rat brain membranes (NMDA receptor subtype). Conditions: displacement of 5 nM [3H] Compound A, rat whole brain minus cerebellum and medulla oblongata membranes, pH 7.4, 2 hours at 4° C. As for the experimental part: ^3 H R-(R*,S*)]-α-(4-Hydroxy-phenyl)-β-methyl-4-(phenyl-methyl)-1-piperidine propanol (compound A) binding
Male Fullinsdorf albino rats weighing between 150-200 g were used. Membranes were prepared by homogenization of the whole brain minus cerebellum and medulla oblongata with a Polytron (10.000 rpm, 30 seconds), in 25 volumes of a cold Tris-HCl 50 mM, EDTA 10 mM, pH 7.1 buffer. The homogenate was centrifuged at 48.000 g for 10 minutes at 4° C. The pellet was resuspended using the Polytron in the same volume of buffer and the homogenate was incubated at 37° C. for 10 minutes. After centrifugation the pellet was homogenized in the same buffer and frozen at -80° C. for at least 16 hours but not more than 10 days. For the binding assay the homogenate was thawed at 37° C., centrifuged and the pellet was washed three times as above in a Tris-HCl 5 mM, pH 7.4 cold buffer. The final pellet was resuspended in the same buffer and used at a final concentration of 200 μg of protein/ml.
Compound A binding experiments were performed using a Tris-HCl 50 mM, pH 7.4 buffer. For displacement experiments 5 nM of Compound A were used and non specific binding was measured using 10 μM of tetrahydroisoquinoline and usually it accounts for 10% of the total. The incubation time was 2 hours at 4° C. and the assay was stopped by filtration on Whatmann GF/B glass fiber filters (Unifilter-96, Packard, Zutrich, Switzerland). The filters were washed 5 times with cold buffer. The radioactivity on the filter was counted on a Packard Top-count microplate scintillation counter after addition of […] of microscint 40 (Canberra Packard S.A., Zurich, Switzerland).
The effects of compounds were measured using a minimum of 8 concentrations and repeated at least once. The pooled normalized values were analyzed using a non-linear regression calculation program which provide IC50 with their relative upper and lower 95% confidence limits (RS1, BBN, USA). The IC50 value refers to the concentration of a compound needed to give 50% inhibition, i.e., the concentration at which 50% of the ligands bonded to the recept or are displaced.
Concentrations higher than 10 μM were not tested.
Usually IC50 stands for the midpoint of a concentration-inhibition curve. `c1cc(CN2CCCC2)cc(-c2n[nH]c(-c3ccc4ccccc4c3)n2)c1` [Example 25, 5-Naphthalen-2-yl-3-(3-pyrrolidin-1-ylmethyl-phenyl)-1H-[1,2,4]triazole hydrochloride]: the half-maximal inhibitory concentration (IC50) is 1000 nM.
Compound `Clc1ccc(-c2nc(-c3cccc(CN4CCCC4)c3)n[nH]2)cc1` [Example 49, 5-(4-Chloro-phenyl)-3-(3-pyrrolidin-1-ylmethyl-phenyl)-1H-[1,2,4]triazole hydrochloride] registered an IC50 of 87 nM.
Then `CCN(CC)Cc1cccc(-c2n[nH]c(-c3ccc(OC)cc3)n2)c1` [Example 52, Diethyl-{3-[5-(4-methoxy-phenyl)-1H-[1,2,4]triazol-3-yl]-benzyl}-amine hydrochloride], with 330 nM.
The same measure for `COc1ccc(-c2nc(-c3cccc(CN4CCCC4)c3)n[nH]2)cc1` [Example 51, 5-(4-Methoxy-phenyl)-3-(3-pyrrolidin-1-ylmethyl-phenyl)-1H-[1,2,4]triazole hydrochloride]: 58 nM; for `COc1ccc(-c2nc(-c3cccc(CN)c3)n[nH]2)cc1` [Example 73, 3-[5-(4-Methoxy-phenyl)-1H-[1,2,4]triazol-3-yl]-benzylamine hydrochloride]: 8.3 nM.
